What was measured:
[1] = adults; cited from earlier work
[2] = clinical; details: both, human, in vivo, po
[3] = patients co-administered allopurinol and theophylline; cited from earlier work
[4] = febuxostat vs placebo regimen, in words

For `Cc1nc(-c2ccc(OCC(C)C)c(C#N)c2)sc1C(=O)O` [Febuxostat], the “maximum observed theophylline concentration (Cmax) and exposure to theophylline (AUC), febuxostat vs placebo” value (in words) was “comparable”.

For `Cn1c(=O)c2[nH]cnc2n(C)c1=O` [Theophylline, 1,3-dimethyl-7H-purine-2,6-dione], the biological half-life [1] is listed as “about 6 hours”, the Tmax [2] is listed as 7 to 9 h and the Vd/F [2] is listed as 58.2 L. For the same compound, the half-life [2] was 9.69 h, the “point estimates for theophylline Cmax, AUC(0-tlqc) and AUC(0-inf)” value (both, human, in vivo) was about 100% and the “estimated mean T1/2, CL/F and Vz/F of theophylline, compared between regimens” value [4] was “generally similar”. The “mean AUC(0-inf) of theophylline, compared between regimens” value [4] was “comparable”.

For `Oc1ncnc2[nH]ncc12` [allopurinol], the “decrease of theophylline clearance” value [3] is listed as 21%, the “increase of theophylline AUC” value [3] is listed as “up to 27%” and the “increase of theophylline half-life” value [3] is listed as “approximately 25%”.
